Source: patent publication US5852011A, “Benzimidazole derivatives” (Mitsui Chemicals, Inc., priority 1994, dated 1998)
In brackets after ≈: the same amount, converted by molar mass. Where a name gives a salt, the structure may show the parent alone.

Assays:
[1] = test system: A(adenine)-T(thymine) DNA copolymer; experiment: Change in Tm (melting temperature) of DNA copolymer on addition of compound (Test 1); assay type: binding; settings: for ΔTm: difference between Tm with and without compound, citrated buffer
Protocol: To investigate bonding of these compounds with DNA, changes in Tm (melting temperature) were measured. With respect of each of these compounds, the measurement was conducted by determining the difference between Tm measured when a citrated buffer solution of an A(adenine)-T(thymine) DNA copolymer was added with the compound and that measured when the compound was not added. For the measurement, a spectrophotometer ("HITACHI U-3200 MODEL") was used and for temperature control, "HITACHI SPR-10 MODEL" was used.

mouse B16 melanoma cells = experiment: In vitro inhibition of proliferation of tumored cells, mouse B16 melanoma (Test 2); assay type: cell-based; settings: 3 days in 5% CO2 at 37° C., 96-well plate; for IC50: Mus musculus, B16, 72 h, read-out: 50% Inhibition
Protocol: A description will next be made of antitumor activities of these compounds. Their antitumor activities were determined by measuring their in vitro inhibition of proliferation of tumored cells. Namely, mouse B16 melanoma cells were spread over a 96-well culture plate. One day later, each drug was applied. The melanoma cells were then incubated for 3 days in 5% CO2 at 37° C. Following the method reported in Cancer Res., 48, 589-601(1988), the concentration of the drug required to induce 50% inhibition on the proliferation was determined. As a comparative example, the results obtained from the application of distamycin are also shown.

P388 leukemia cells = experiment: In vivo antitumor activity, P388 leukemia intraperitoneally transplanted to female CDF1 mice (Test 3); parameters: species or system mouse; ILS: unit not given here; settings: intraperitoneal, one, five and nine days after transplantation
Protocol: In vivo antitumor activities of these compounds were also studied. P388 leukemia cells (10^6 cells/mouse) were intraperitoneally transplanted to female CDF1 mice. One, five and nine days later, each compound was intraperitoneally administered (at 1, 3 or 10 mg/kg) to the mice. As a blank test, 5% glucose was intraperitoneally administered at 10 ml/kg to mice. Based on the group of the mice in the blank test as a control group, the effects of the individual drugs are shown in terms of ILS. The term "ILS" is represented by the following formula: [formula]
When test animals survived 8 weeks after the administration, the number of those survived was recorded without calculation of ILS.

[2] = test system: Colon 26 mouse colon cancer cells; experiment: In vivo antitumor activity, Colon 26 subcutaneously transplanted to female CDF1 mice (Test 4); settings: caudal vein, tumor weight on day 15
Protocol: Prepared was a 1×10^7 cells/ml suspension of Colon 26 mouse colon cancer cells in HBSS (Hanks' Balanced Salt Solution). A 0.1 ml portion of the cell suspension was subcutaneously transplanted to a lateroabdominal part of each female CDF1 mouse. After the body weight of the mouse was measured on the following day of the transplantation of the tumor, a solution of a compound (5% glucose solution containing 5% of "Tween 80") was administered into the caudal vein of the mouse. On day 15, a tumor was excised and its weight was measured.
The percentage of the average tumor weight of each experiment group as calculated by supposing that the average tumor weight of the control group not administered with any drug was 100% was calculated as a T/C value.
Corresponding to each compound number, its T/C value is shown. The number in parentheses indicates the concentration of the drug when the T/C value was indicated.

| SMILES | 50% Inhibition (mouse B16 melanoma cells) [µg/mL] | ΔTm [1] [°C] | IC50 (mouse B16 melanoma cells) [µg/mL] | further results |
| --- | --- | --- | --- | --- |
| Cn1cc(C=O)cc1-c1nc2cc(C(=O)NCCC(=N)N)ccc2[nH]1 |  |  |  | binding to DNA indicated by Tm (in words) ([1]; melting temperature of double-stranded DNA): increased Tm value |
| Cn1cc(NC(=O)c2ccc(N(CCCl)CCCl)cc2)cc1-c1nc2cc(C(=O)NCCC(=N)N)ccc2[nH]1 [Compound 1, 1H-2-[4-[4-[N,N-bis(2-chloroethyl)amino]benzoylamino]-1-methylpyrrol-2-yl]benzimidazole-5-[N-(2-amidinoethyl)]carboxamide hydrochloride] | 0.23 |  |  | ILS (P388 leukemia cells; 1 mg/kg): 38; T/C ([2]; 2 mg/Kg): 29% |
| Cn1cc(NC(=O)CCCc2ccc(N(CCCl)CCCl)cc2)cc1-c1nc2cc(C(=O)NCCC(=N)N)ccc2[nH]1 [Compound 4, 1H-2-[4-[4-[4-[N,N-bis(2-chloroethyl)amino]phenyl]butylylamino]-1-methylpyrrol-2-yl]benzimidazole-5-[N-(2-amidinoethyl)]carboxamide hydrochloride] | 0.04 | 17 |  |  |
| Cn1cc(NC=O)cc1-c1nc2cc(C(=O)NCCC(=N)N)ccc2[nH]1 [Compound 318, 1H-2-(4-Formylamino-1-methylpyrrol-2-yl)benzimidazole-5-[N-(2-amidinoethyl)]carboxamide hydrochloride] |  | 7 | 19.8 |  |
| Cn1cc(NC(=O)CNC(=N)N)cc1-c1nc2cc(C(=O)Nc3ccc(N(CCCl)CCCl)cc3)ccc2[nH]1 [Compound 1001, 1H-2-[1-Methyl-4-(2-guanidinoacetylamino)pyrrol-2-yl]benzimidazole-5-[N-[4-[N,N-bis(2-chloroethyl)amino]phenyl]]carboxamide hydrochloride] | 0.53 |  |  | ILS (P388 leukemia cells; 10 mg/kg): 115; T/C ([2]; 6 mg/Kg): 7% |
| Cn1cc(NC(=O)c2cc(NC(=O)c3cc(NC=O)cn3C)cn2C)cc1C(=O)NCCC(=N)N [Distamycin, distamycin, reference compound] |  | 10 | 36 (≈ 74.8 µM) |  |
